Assay results from PubChem BioAssay AID1645866 (Buhrlage Lab, Dana-Farber Cancer Institute and Novartis …, 2021).
Active and inactive are the calls of the source.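 The calls were made as follows: active = in confirmatory dose-response testing, peak deubiquitinase inhibition of 30% or more; inactive = the rest.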

Target: Ubiquitin carboxyl-terminal hydrolase 28 (Homo sapiens) (UniProt Q96RU2)
Assay: Concentration-response biochemical assay confirming initial hits as inhibitors of ubiquitin-specific protease 28 (AID 1645866)
Conditions: purified USP28, ubiquitin-rhodamine fluorescence, 30 min

Sequence of Ubiquitin carboxyl-terminal hydrolase 28 (Homo sapiens) (Q96RU2 whole entry, looked up): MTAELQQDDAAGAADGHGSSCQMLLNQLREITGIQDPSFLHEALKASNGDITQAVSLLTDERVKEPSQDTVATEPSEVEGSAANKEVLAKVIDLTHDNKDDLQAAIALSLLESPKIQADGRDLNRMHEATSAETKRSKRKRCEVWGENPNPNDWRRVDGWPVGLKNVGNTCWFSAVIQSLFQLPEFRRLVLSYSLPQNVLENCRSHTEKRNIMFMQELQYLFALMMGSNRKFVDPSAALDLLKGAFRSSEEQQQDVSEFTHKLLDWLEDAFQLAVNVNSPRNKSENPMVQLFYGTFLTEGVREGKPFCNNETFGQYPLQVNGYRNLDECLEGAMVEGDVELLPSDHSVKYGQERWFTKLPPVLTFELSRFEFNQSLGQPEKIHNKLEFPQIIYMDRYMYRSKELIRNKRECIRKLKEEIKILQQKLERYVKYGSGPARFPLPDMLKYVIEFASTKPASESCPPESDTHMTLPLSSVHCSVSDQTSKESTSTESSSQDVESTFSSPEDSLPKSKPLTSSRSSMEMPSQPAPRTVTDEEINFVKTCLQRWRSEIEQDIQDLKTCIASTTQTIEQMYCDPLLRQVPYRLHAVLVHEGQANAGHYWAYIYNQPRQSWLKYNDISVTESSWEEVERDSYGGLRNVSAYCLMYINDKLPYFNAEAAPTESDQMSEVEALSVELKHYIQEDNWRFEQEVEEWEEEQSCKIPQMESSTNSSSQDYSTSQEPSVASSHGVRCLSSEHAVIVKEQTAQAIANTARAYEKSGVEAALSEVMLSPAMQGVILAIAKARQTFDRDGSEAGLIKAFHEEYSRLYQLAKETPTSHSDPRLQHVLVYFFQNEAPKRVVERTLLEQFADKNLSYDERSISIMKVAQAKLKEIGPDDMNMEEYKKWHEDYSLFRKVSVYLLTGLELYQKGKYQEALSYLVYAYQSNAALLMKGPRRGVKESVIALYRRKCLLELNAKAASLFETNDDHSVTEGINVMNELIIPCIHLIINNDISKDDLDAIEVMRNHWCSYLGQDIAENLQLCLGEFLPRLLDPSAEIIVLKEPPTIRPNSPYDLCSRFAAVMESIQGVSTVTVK

Row | Structure (SMILES) | IC50
1 | NC(=O)C1(N2CCCCC2)CCN(C(=O)c2[nH]nc3c2CCc2ccccc2-3)CC1 | > 50 µM (inactive)
2 | COC1C(O)=C2C(=O)O/C(C)=C/C=C/C=C/C=C/CC(c3ccccc3)NC(=O)/C=C/C=C/C=C\C=C\C2(C)C1O (centres undefined) | > 50 µM (inactive)
3 | COc1ccc(C)cc1NC(=O)Cc1csc(NC(=O)c2ccc(=O)[nH]c2)n1 | 46.9 µM
4 | COc1ccccc1S(=O)(=O)N1CC[C@@H]2CN(C)[C@@H]2C1 | 35.1 µM
5 | Cc1ccc(C)c(S(=O)(=O)N2CCN(c3ccc4nnc(-c5ccco5)n4n3)CC2)c1 | > 50 µM (inactive)
6 | CCC(CC)n1[nH]c(=O)c2c1NC(=O)CSC2c1ccc2c(c1)OCO2 (centres undefined) | 18.6 µM
7 | NC(=O)c1ccc(NC(=O)Cc2cc(-c3ccc(Cl)cc3)on2)cc1 | > 50 µM (inactive)
8 | O=C(/C=C/c1ccc2c(c1)OCO2)Nc1nc2c(s1)COCC2 | 27.5 µM
9 | Cc1cnc2nc3c(cc2c1)CN(CCc1ccc(Cl)cc1)CC3 | > 50 µM (inactive)
10 | COc1ccc(-c2nnc(SCc3ccccc3C#N)o2)c(OC)c1 | > 50 µM (inactive)
11 | CC(OC(=O)c1cn(-c2ccccc2)nc1-c1cccnc1)C(=O)Nc1cccc(S(=O)(=O)N(C)C)c1 (centres undefined) | 30.9 µM
12 | CCCc1c(C(=O)O)c(O[C@H]2O[C@H](C)[C@@H](OC)[C@H](OC)[C@@H]2OC)cc2cc3c(c(O)c12)C(=O)c1c(O)cc(O[C@@H]2O[C@@H](C)[C@H](O[C@H]4O[C@H](C)[C@@H](OC)[C@H](OC)[C@@H]4O)[C@@H](OC)[C@H]2O)cc1C3=O | > 50 µM (inactive)
13 | COc1ccc(/C=C\c2nccc3c2[nH]c2ccccc23)cc1 | > 50 µM (inactive)
14 | O=C(COC(=O)Cn1cnc2ccccc21)Nc1ccc2c(c1)OCCO2 | 29.3 µM
15 | Cc1cnc2nc3c(cc2c1)CN(S(=O)(=O)c1cc(F)ccc1C)CC3 | > 50 µM (inactive)
16 | Cc1ccc2c(c1)c(=O)c(C(=O)c1ccc(F)cc1)cn2CC(=O)Nc1ccc2c(c1)OCCO2 | 35.9 µM
17 | Cc1ccc(-c2nc(Cn3nnc(-c4nc(-c5ccccn5)no4)c3C)c(C)o2)cc1 | > 50 µM (inactive)

The next lines start with the values.

Row | IC50 | Structure (SMILES)
18 | 9.44 µM | O=C(Nc1ccc2c(c1)OCCO2)C1CCN(C(=O)c2ccccc2)CC1
19 | 2.72 µM | Cc1nn(-c2ccccc2)c(C)c1C(=O)OCC(=O)Nc1cccc(Br)c1
20 | 19.1 µM | CC(=O)Nc1ccc(S(=O)(=O)N2CCCC(C(=O)Nc3cccc4ccccc34)C2)cc1 (centres undefined)
21 | 8.14 µM | O=C(NC1CCCC1)c1cccc(-c2ccc(N3CCCC3)nc2)c1
22 | 25.1 µM | Cc1noc(-c2cc(=O)n(CC(=O)NCc3ccccc3)c3ccccc23)n1
23 | 26.4 µM | Cc1nnc(NCc2cccnc2)c2c1nnn2Cc1ccccc1Cl
24 | < 0.05 µM | Cc1ccc2c(C)nc(Nc3ncc4c(n3)CC(c3ccco3)CC4=O)nc2c1 (centres undefined)
25 | 4.61 µM | COc1ccc(OC)c(NC(=O)Cn2c(=O)n(CC3CCC(C(=O)NCCc4ccccc4)CC3)c(=O)c3ccccc32)c1 (centres undefined)
26 | 15.6 µM | O=C(CNc1ccc(F)c(Cl)c1)Nc1ccc2c(c1)OCCO2
27 | 26.5 µM | CCOC(=O)c1nc(Nc2ccc(OC)c(Cl)c2)c2ccccc2n1
28 | 9.86 µM | COc1cccc2cc(C(=O)Nc3ccc4c(c3)OCCO4)oc12
29 | 9.31 µM | O=C(CSc1ccc2nnc(-c3ccccc3)n2n1)N1CCCc2ccccc21
30 | 24.3 µM | Cc1cccc(S(=O)(=O)N2CCc3nc4ccccc4n3CC2)c1
31 | 20.4 µM | CC(C)(C)c1ccc(C(=O)Nc2ccc(Oc3cccnc3)nc2)cc1
32 | 26.2 µM | CCc1cc(=O)n(CC(=O)Nc2cc(C)ccc2OC)c(N2CCOCC2)n1
33 | 12 µM | CCc1ccc(NC(=O)COC(=O)c2n[nH]c3ccccc23)cc1
34 | 24.7 µM | Cc1ccc2[nH]c(=O)c(CN(CC3CCCO3)S(=O)(=O)c3ccccc3)cc2c1 (centres undefined)
35 | 24.6 µM | Cc1ccc(C(=O)NCC(=O)Nc2nc3ccccc3[nH]2)c(C)c1
36 | 14.5 µM | CCCCCn1c(Sc2ccc(C)cc2)nc2c1c(=O)[nH]c(=O)n2C
37 | 15.5 µM | CCn1c(Cn2cccn2)nc2cc(NC(=O)c3ccc(F)cc3)ccc21
38 | 6.16 µM | COc1ccccc1-n1nnc(C(=O)Nc2ccc(Oc3ccccc3)cc2)c1C
39 | 11.1 µM | Cc1nnc(NC(=O)C2CCN(c3ccc(S(N)(=O)=O)cc3[N+](=O)[O-])CC2)o1
